US20260199284A1, “SPECIFIC VASH COMPOUNDS (SVC) INHIBITORS FOR HEART DISEASES” (MT ACT, priority 2023, published 2026)
“Also recorded” adds a separate entry of the source.

Columns and labels:
[1] = molecular target: recombinant human VASH1 (hVASH1) and SVBP complex (Homo sapiens, UniProt Q7L8A9); assay: In vitro detyrosination assay (ELISA-based) with recombinant human VASH1/SVBP; assay type: biochemical; conditions: for inhibition of detyrosinase activity of recombinant human VASH1: recombinant enzyme, dose-response
Method: FIG. 3: In vitro detyrosination assays using recombinant human VASH1 (hVASH1) and SVBP complex. ELISA-based method to measure detyrosinase activity. Dose-response allows for accurate determination of the inhibition of the compounds on the target.
We undertook an extensive analysis of the human proteome and sought to identify human proteins that encoded a -EEY sequence at the very C-terminal. […] Following 2 hours exposure of the human cells to the SVC_01 compound, we fixed and analysed by specific immunofluorescence the labelling of detyrosinated tubulin but also that of another posttranslational modification termed acetylation (FIG. 4).

[2] = test system: tubulin detyrosination in human cells; assay: Immunofluorescent (high content screening) detection of tubulin detyrosination in human cells; assay type: cell-based
Method: FIG. 4: Immuofluorescent staining of wild type human cells and VASH double knock-outs.
FIG. 5: Immunofluorescent method to detect levels of tubulin detyrosination in human cells. Dose dependent reduction of tubulin detyrosination in human cells is observed after 2 hours treatment with all SVCs. In cellulo IC50 measure for SVC_03=10 nM.
FIG. 30: Immunofluorescent method to detect levels of tubulin detyrosination in human cells. Dose dependent reduction of tubulin detyrosination in human cells is observed after 2 hours treatment with all SVCs.
Since to date no small molecule has been designed to inhibit the enzyme VASH that is responsible for tubulin detyrosination, we engineered various compounds based on the natural substrate of the enzyme. We undertook an extensive analysis of the human proteome and sought to identify human proteins that encoded a -EEY sequence at the very C-terminal. Only 3 proteins matched the criteria including alpha-tubulin. Therefore, we developed 5 compounds that all share a tyrosine in the structure that is essential for the specificity (FIG. 2). […] Using computer-aided drug discovery and iterative cycles of medicinal chemistry work-up followed by ELISA (in vitro) and HCS (in cellulo) testing, we gathered a SAR database containing new chemical entities. The potency and selectivity of these compound is considered within pharmaceutical standards for further development. […] Next, using a human cell-line we assayed the activity of the compound SVC_01 in a cellular system that further gives indication on penetration and cellular efficacy. Following 2 hours exposure of the human cells to the SVC_01 compound, we fixed and analysed by specific immunofluorescence the labelling of detyrosinated tubulin but also that of another posttranslational modification termed acetylation (FIG. 4). […] Although specific, SVC_01 was used at micromolar concentration to obtain full inhibition. With the objective to improve cellular IC50 of our SVCs, we designed compounds that have better cell penetration specifications.

[3] = test system: ZSF-1 Obese cardiomyocyte; assay: Immunofluorescence of detyrosinated and tyrosinated tubulin in ZSF1 cardiomyocytes; assay type: cell-based, rat; conditions: 2 hr 37 C incubation
Method: Cells were fixed in 4% PFA (Electron Microscopy Sciences) for 10 minutes, washed 3 times with PBS and permeabilized in 0.1% TritonX-100 for 10 minutes at room temperature. After washing twice with PBS, cells were placed in blocking buffer (1:1 Seablock (Abcam) and 0.1% TritonX-100 (Bio-Rad) in PBS) for at least 1 hour at room temperature, then labeled with primary antibodies (see below) for 24-48 hours at 4° C. Cells were then washed three times in TBS, then labeled with secondary antibodies (see below) in TBS at room temperature for 2-4 hours and washed a final two times with TBS. Stained cells were mounted on #1.5 coverslips in Prolong Diamond Antifade Mountant (Thermo Fisher) for imaging. Alternatively, cells were imaged directly in chambers with TBS. Imaging was carried out on a Zeiss 880 Airyscan confocal microscope operating on an Axiovert Z1 inverted microscope equipped with a Plan-Apochromat 63× oil 1.4 NA objective. Image analysis was performed using ZEN Black software for Airyscan processing, which involves signal integration from the 32 separate sub-resolution detectors in the Airyscan detector and subsequent deconvolution of this integrated signal.

[4] = test system: human adult cardiomyocytes; assay: mRNA expression of detyrosination-tyrosination cycle genes in human adult cardiomyocytes; assay type: cell-based; conditions: vs vehicle
Method: FIG. 34: human adult cardiomyocytes are treated with vehicle or SVC-01 and collected for analysis of mRNA expression of genes involved in the detyrosination-tyrosination cycle.
Specificity of SVC-01 was assayed using both human VASH1 and VASH2 recombinant enzymes. […] Finally, to ensure that regulation of other genes involved in the detyrosination-tyrosination cycle is not affected, we analysed gene expression of all relevant and associated genes following treatment with SVC-02 in adult human cardiomyocytes. We found no alteration of VASH1, VASH2, MATCAP, TTL or SVBP gene expression between vehicle control and SVC-02 treated cells (FIG. 34).

[5] = test system: human cells
Text: FIG. 9: Cell viability assay comparing microtubule binding drugs (Parthenolide, Taxol) to SVC_01 exposure on human cells. The MTT assay is used to measure cellular metabolic activity as an indicator of cell viability, proliferation and cytotoxicity. This colorimetric assay is based on the reduction of a yellow tetrazolium salt (3-(4,5-dimethylthiazol-2-yl)-2,5-diphenyltetrazolium bromide or MTT) to purple formazan crystals by metabolically active cells.
Next, we performed safety pharmacology experiments and head-to-head compared the cellular toxicity of SVCs on human cells.

[6] = test system: Sprague Dawley rats; assay: Myocardial tubulin detyrosination after IV injection, western blot; assay type: in vivo, rat; conditions: single injection IV, 8 weeks old Sprague Dawley rats
Text: B) Quantification of detyrosination levels (D1/alpha-tubulin ratio) in vehicle (n=4) and VASHi-treated rats (n=3).
For efficacy testing we presented SVC_01 to primary cardiomyocytes isolated from Sprague Dawley rats. […] Next, we performed functional studies by measuring key cardiomyocytes parameters including resting, fractional shortening, contraction time and relaxation time. […] The ZSF1 rat model is a hybrid rat obtained by a cross between a ZDF female and an SHHF male rat. This model is an established HFpEF rat model. Obese ZSF1 (O—ZSF1) hybrid rats are compound heterozygote with two different mutated alleles coding defective leptin receptor, resulting in loss of the receptor function. Thus, these animals have increased food intake and develop pronounced features of obesity, diabetes, and resultant HFpEF. […] We performed a western blot analysis from myocardial tissue prepared from Wistar Kyoto (WKY), ZSF1 lean and ZSF1 obese rats (FIG. 14). In line with previously published data of the role of microtubule densification and tubulin detyrosination, we found an increase in both total tubulin as well as detyrosinated tubulin in myocardial tissue of ZSF1-obese rats compared to the lean and WKY controls. […] Similar results were observed by assessment of the transverse stiffness. […]

[7] = 2 hours exposure, immunofluorescence

Chain of recombinant human VASH1 (hVASH1) and SVBP complex (Q7L8A9 whole entry): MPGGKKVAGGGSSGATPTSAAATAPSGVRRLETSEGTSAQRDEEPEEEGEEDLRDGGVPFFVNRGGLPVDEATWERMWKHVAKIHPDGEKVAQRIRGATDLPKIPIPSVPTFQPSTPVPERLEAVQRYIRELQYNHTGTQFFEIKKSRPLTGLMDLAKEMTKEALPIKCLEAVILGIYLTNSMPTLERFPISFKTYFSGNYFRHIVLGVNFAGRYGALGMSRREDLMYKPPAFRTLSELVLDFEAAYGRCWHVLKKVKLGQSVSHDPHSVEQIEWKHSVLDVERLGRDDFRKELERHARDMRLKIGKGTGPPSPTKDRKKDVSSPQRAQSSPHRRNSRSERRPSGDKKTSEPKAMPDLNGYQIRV
Chain of recombinant human VASH1 (hVASH1) and SVBP complex (Q8N300 whole entry partner): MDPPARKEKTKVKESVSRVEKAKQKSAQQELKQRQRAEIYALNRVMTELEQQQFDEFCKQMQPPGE

Row | SMILES | better inhibition compared to Epo-Y [1] | inhibition of detyrosinase activity of recombinant human VASH1 [1] | level of acetylated tubulin in human cells [2, 7] | level of tubulin detyrosination in human cells [2, 7] | detyrosinated tubulin in ZSF1 cardiomyocytes [3] | tyrosinated microtubule network [3] | expression of VASH1, VASH2, MATCAP, TTL or SVBP genes [4] | cell viability / proliferation (MTT) [5] | IC50 on human cells ([2]; human cells) | detyrosinated tubulin in myocardial tissue [6]
1 | O=C(O)CCC[C@H](NC(=O)[C@H]1O[C@@H]1C(=O)C[C@@H](Cc1ccc(OCc2ccccc2)cc1)C(=O)O)C(=O)NCCc1ccccc1 [SVC_01] | about 100 × | efficiently inhibited; also recorded: efficient in inhibiting | remain unaffected; also recorded: without affecting the level of acetylation | background signal comparable to that observed in VASH 2KO cells; also recorded: completely reduced the level of tubulin detyrosination | virtual elimination of detyrosinated microtubule; also recorded: significant reduction of tubulin detyrosination | maintained tyrosinated microtubule network | did not alter expression | does not impact cell proliferation | – | –
2 | CCOC(=O)[C@H](Cc1ccc(OCC)cc1)NC(=O)[C@H]1O[C@@H]1C(=O)N[C@@H](Cc1ccc(OCC)cc1)C(=O)OCC [SVC_02] | – | inactive in its prodrug form; also recorded: inactive toward the therapeutic target | – | – | – | – | no alteration | – | low nanomolar | efficient reduction in detyrosinated tubulin
